The test relates to organophosphorous agent resistant two-spotted spider mites. Kind of test: Effect on Two-spotted Spider Mite (spray on kidney bean leaves). In kind it is in vivo. To be noted: 125 ppm, water dispersible powder of Formulation Example 1 sprayed, 17 female adults, 25° C., 65% humidity, 3 days. The source says: Effect on Two-spotted Spider Mite
17 female adults of organophosphorous agent resistant two-spotted spider mites were inoculated onto the first leaves of kidney beans seeded onto 3.5 inch pots and germinated 7 to 10 days before, onto which each of liquid agents, diluted with water so as to adjust the respective concentration of the chemical compounds to 125 ppm according to the formulation of the water dispersible powder shown in the aforementioned Formulation Example 1, was sprayed. After they were left in a thermostatic chamber at 25° C. in 65% humidity for 3 days, the rate of killed adults was investigated. The examination was repeated twice. As the results, the following chemical compounds killed 100% of the adults.
`FC(F)COc1cc(C(F)(F)F)ccc1OC1CC2CCC(C1)N2c1ccc(C(F)(F)F)cn1` (centres unmarked) [2-246]: the “rate of killed adults” value is given as 100%.
Turning to `CCCC(O)c1cc(C(F)(F)F)ccc1OC1CC2CCC(C1)N2c1ccc(C(F)(F)F)cn1` (stereo not drawn) [2-184, 3α-[2-(1-hydroxybutyl)-4-(trifluoromethyl)phenoxy]-8-[5-(trifluoromethyl)-2-pyridyl]-8-azabicyclo[3.2.1]octane], the “rate of killed adults” value is 100%.
For `FC(F)(F)c1ccc(OC2CCN(c3ccc(C(F)(F)F)cn3)C2)cc1` (centres unmarked) [8-63, 3-[4-(trifluoromethyl)phenoxy]-1-[5-(trifluoromethyl)-2-pyridy]pyrrolidine], the “rate of killed adults” value stood at 100%.
In the case of `CCC1COC(c2cc(C(F)(F)F)ccc2O[C@@H]2[C@@H]3CC[C@H]2CN(c2ccc(C(F)(F)F)cn2)C3)N1` (some centres unmarked) [5-263], the “rate of killed adults” value turned out to be 100%.
In the case of `FC(F)(F)c1ccc(N2C3CCC2CC(Oc2ccc(C(F)(F)F)cc2OCC=CCl)C3)nc1` (mixture of isomers) [2-148] it was 100%; in that of `C=C(Cl)COc1cc(C(F)(F)F)ccc1OC1CC2CCC(C1)N2c1ccc(C(F)(F)F)cn1` (centres unmarked) [2-183], 100%.
`CSCOc1cc(C(F)(F)F)ccc1OC1CC2CCC(C1)N2c1ccc(C(F)(F)F)cn1` (centres unmarked) [2-182]: the “rate of killed adults” value is 100%.
Regarding `Cc1cnc(-c2cc(C(F)(F)F)ccc2OC2CC3CCC(C2)N3c2ccc(C(F)(F)F)cn2)o1` (centres unmarked) [2-205], the “rate of killed adults” value was 100%.
The result for `CCCOc1cc(C(F)(F)F)cc(Cl)c1OC1CC2CCC(C1)N2c1ccc(C(F)(F)F)cn1` (centres unmarked) [2-95] reads 100%; that for `CC=CCOc1cc(C(F)(F)F)ccc1OC1CC2CCC(C1)N2c1ccc(C(F)(F)F)cn1` (mixture of isomers) [2-145], 100%; that for `CC(C)(O)COc1cc(C(F)(F)F)ccc1OC1C2CCC1CN(c1ccc(C(F)(F)F)cn1)C2` (centres unmarked) [5-129], 100%.
As for `CCCOc1cc(C(F)(F)F)ccc1O[C@@H]1[C@@H]2CC[C@H]1CN(c1ccc(C(F)F)cn1)C2` [5-99], the “rate of killed adults” value turned out to be 100%.
For `CCCOc1cc(C(F)(F)F)ccc1OC1CCN(c2ccc(C(F)(F)F)cn2)CC1CCC` (centres unmarked) [1-192], the “rate of killed adults” value is reported as 100%.
Consider `O=[N+]([O-])c1cc(C(F)(F)F)ccc1O[C@@H]1[C@@H]2CC[C@H]1CN(c1ccc(C(F)(F)F)cn1)C2` [5-38], for which the “rate of killed adults” value worked out at 100%.
Take `CC(F)COc1cc(C(F)(F)F)ccc1OC1CC2CCC(C1)N2c1ccc(C(F)(F)F)cn1` (centres unmarked) [2-181]: the “rate of killed adults” value is given as 100%.
For the molecule `[O-][S+](c1ccc(OC2CCN(c3ccc(C(F)(F)F)cn3)CC2)cc1)C(F)(F)F` (centres unmarked) [1-150], the “rate of killed adults” value was determined as 100%.
Turning to `CCCOc1cc(C(F)(F)F)ccc1O[C@@H]1[C@@H]2CC[C@H]1CN(c1ccc(C=O)cn1)C2` [5-100], the “rate of killed adults” value was 100%.
Take `CCCCOc1cc(C(F)(F)F)ccc1OC1CC2CCC(C1)N2c1ccc(C(F)(F)F)cn1` (centres unmarked) [2-97]: the “rate of killed adults” value is listed as 100%.
With `CN(C)S(=O)(=O)Oc1cc(C(F)(F)F)ccc1OC1CC2CCC(C1)N2c1ccc(C(F)(F)F)cn1` (centres unmarked) [2-155], the “rate of killed adults” value was 100%.
On to `FC(F)(F)c1ccc(N2C3CCC2CC(Oc2ccc(C(F)(F)F)cc2C2OCCO2)C3)nc1` (stereo not drawn) [2-169, 3α-{2-([1,3]dioxolane-yl)-4-(trifluoromethyl)phenoxy}-8-[5-(trifluoromethyl)-2-pyridyl]-8-azabicyclo[3.2.1]octane], for which the “rate of killed adults” value is 100%.
For `CCCOc1cc(C(F)(F)F)ccc1OC1CC2CCC(C1)N2c1ccc(C(F)(F)F)c[n+]1[O-]` (stereo not drawn) [2-83, 3α-[2-propoxy-4-(trifluoromethyl)phenoxy]-8-[5-(trifluoromethyl)-2-pyridyl-1-oxy]-8-azabicyclo[3.2.1]octane], the “rate of killed adults” value is listed as 100%.
Consider `COCOc1cc(C(F)(F)F)ccc1OC1CC2CCC(C1)N2c1ccc(C(F)(F)F)cn1` (stereo not drawn) [2-102, 3α-[2-methoxymethoxy-4-(trifluoromethyl)phenoxy]-8-[5-(trifluoromethyl)-2-pyridyl]-8-azabicyclo[3.2.1]octane], for which the “rate of killed adults” value is 100%.
As to `FC(F)(F)c1ccc(N2CC3CCC(C2)C3Oc2ccc(C(F)(F)F)cc2OCC2CCO2)nc1` (centres unmarked) [5-213], the “rate of killed adults” value is reported as 100%.
The result for `CCCCOc1cc(C(F)(F)F)ccc1OC1CCN(c2ccc(C(F)(F)F)cn2)CC1` [1-101] reads 100%; that for `CCCc1cc(Cl)ccc1OC1CCN(c2ccc(C(F)(F)F)cn2)CC1` [1-57], 100%; that for `CC(C)=COc1cc(C(F)(F)F)ccc1O[C@H]1C[C@H]2CC[C@@H](C1)N2c1ccc(C(F)(F)F)cn1` [2-245, 3α-[2-(2-methylpropenyloxy)-4-(trifluoromethyl)phenoxy]-8-[5-(trifluoromethyl)-2-pyridyl]-8-azabicyclo[3.2.1]octane], 100%.
With `CC(Cl)COc1cc(C(F)(F)F)ccc1OC1C2CCC1CN(c1ccc(C(F)(F)F)cn1)C2` (centres unmarked) [5-138], the “rate of killed adults” value came to 100%.
The result for `N#Cc1ccc(OC2CCN(c3ccc(C(F)(F)F)cn3)CC2)cc1` [1-29] reads 100%; that for `Cc1ccc(N2CC3CCC(C2)C3Oc2ccc(C(F)(F)F)cc2OC2CC2(Cl)Cl)nc1` (centres unmarked) [5-210], 100%.
Consider `CCC(C)=NOc1cc(C(F)(F)F)ccc1OC1CC2CCC(C1)N2c1ccc(C(F)(F)F)cn1` (mixture of isomers) [2-226], for which the “rate of killed adults” value amounted to 100%.
Consider `FC(F)(F)c1ccc(N2CC3CCC(C2)C3Oc2ccc(C(F)(F)F)cc2OCc2ccccn2)nc1` (centres unmarked) [5-212], for which the “rate of killed adults” value worked out at 100%.
As for `CCOc1cc(C(F)(F)F)ccc1OC1CCN(c2ccc(Br)cn2)CC1` [1-91], the “rate of killed adults” value was determined as 100%.
For `COC(C)(C)COc1cc(C(F)(F)F)ccc1OC1C2CCC1CN(c1ccc(C(F)(F)F)cn1)C2` (centres unmarked) [5-130], the “rate of killed adults” value is 100%.
In the case of `CC(OC(=O)c1cc(C(F)(F)F)ccc1OC1CC2CCC(C1)N2c1ccc(C(F)(F)F)cn1)C1CC1` (centres unmarked) [2-239] it was 100%.
As for `CCC(C)OC(=O)c1cc(C(F)(F)F)ccc1OC1CC2CCC(C1)N2c1ccc(C(F)(F)F)cn1` (centres unmarked) [2-208], the “rate of killed adults” value was determined as 100%.
Take `CCCC(=O)Oc1cc(C(F)(F)F)ccc1OC1C2CCC1CN(c1ccc(C(F)(F)F)cn1)C2` (centres unmarked) [5-199]: the “rate of killed adults” value came to 100%.
On to `CCCS(=O)(=O)Oc1cc(C(F)(F)F)ccc1OC1C2CCC1CN(c1ccc(C(F)(F)F)cn1)C2` (centres unmarked) [5-163], for which the “rate of killed adults” value worked out at 100%.
Turning to `CC(CCl)OC(=O)c1cc(C(F)(F)F)ccc1OC1CC2CCC(C1)N2c1ccc(C(F)(F)F)cn1` (centres unmarked) [2-233], the “rate of killed adults” value was found to be 100%.
For the molecule `CCC(C)OCc1cc(C(F)(F)F)ccc1O[C@@H]1[C@@H]2CC[C@H]1CN(c1ccc(C(F)(F)F)cn1)C2` (some centres unmarked) [5-242], the “rate of killed adults” value is 100%.
For the molecule `Cc1cc(Cl)ccc1OC1CCN(c2ccc(C(F)(F)F)cn2)CC1` [1-49], the “rate of killed adults” value is on record as 100%.
On to `CCCC(=O)c1cc(C(F)(F)F)ccc1OC1C2CCC1CN(c1ccc(C(F)(F)F)cn1)C2` (centres unmarked) [5-240], for which the “rate of killed adults” value was determined as 100%.
For the molecule `FC(F)(F)c1ccc(N2CCC(Oc3ccc(Cl)cc3)CC2)nc1` [1-10], the “rate of killed adults” value was found to be 100%.
Take `Cc1ccc(OC2CCN(c3ccc(C(F)(F)F)cn3)CC2)c(C)c1` [1-44]: the “rate of killed adults” value is given as 100%.
`CC(Br)COc1cc(C(F)(F)F)ccc1OC1CC2CCC(C1)N2c1ccc(C(F)(F)F)cn1` (centres unmarked) [2-195]: the “rate of killed adults” value came to 100%.
Consider `CC=Cc1cc(C(F)(F)F)ccc1OC1CCN(c2ccc(C(F)(F)F)cn2)CC1` [1-73], for which the “rate of killed adults” value is listed as 100%.
For `CN(C)C(=O)Sc1cc(C(F)(F)F)ccc1OC1CC2CCC(C1)N2c1ccc(C(F)(F)F)cn1` (centres unmarked) [2-157], the “rate of killed adults” value turned out to be 100%.
Take `COC(C)CCc1cc(C(F)(F)F)ccc1OC1CC2CCC(C1)N2c1ccc(C(F)(F)F)cn1` (centres unmarked) [2-192]: the “rate of killed adults” value was 100%.
The result for `CCC(=O)c1cc(C(F)(F)F)ccc1OC1CCN(c2ccc(C(F)(F)F)cn2)CC1` [1-179] reads 100%; that for `CC#CCOc1cc(C(F)(F)F)ccc1OC1C2CCC1CN(c1ccc(C(F)(F)F)cn1)C2` (centres unmarked) [5-232], 100%; that for `CC(=O)OCCOc1cc(C(F)(F)F)ccc1OC1C2CCC1CN(c1ccc(C(F)(F)F)cn1)C2` (centres unmarked) [5-134], 100%.
For `COCCOc1cc(C(F)(F)F)ccc1OC1CCN(c2ccc(C(F)(F)F)cn2)CC1` [1-115], the “rate of killed adults” value is 100%.
Turning to `FC(F)(F)c1ccc(N2CC3CCC(C2)C3Oc2ccc(C(F)(F)F)cc2OCc2cccs2)nc1` (centres unmarked) [5-209], the “rate of killed adults” value is listed as 100%.
In the case of `CCCOc1cc(C(F)(F)F)ccc1OC1CC2CCC(C1)N2c1ccc(Cl)cn1` (centres unmarked) [2-85], the “rate of killed adults” value was 100%.
Regarding `CS(=O)(=O)Oc1cc(C(F)(F)F)ccc1OC1C2CCC1CN(c1ccc(C(F)(F)F)cn1)C2` (centres unmarked) [5-161], the “rate of killed adults” value was 100%.
For `COCCOc1cc(C(F)(F)F)ccc1OC1CC2CCC(C1)N2c1ccc(C(F)(F)F)cn1` (centres unmarked) [2-112], the “rate of killed adults” value is given as 100%.
For the molecule `CCOC(=O)c1cc(C(F)(F)F)ccc1OC1CC2CCC(C1)N2c1ccc(C(F)(F)F)cn1` (centres unmarked) [2-193], the “rate of killed adults” value was found to be 100%.
In the case of `COCCOc1cc(C(F)(F)F)ccc1O[C@@H]1[C@@H]2CC[C@H]1CN(c1ccc(C#N)cn1)C2` [5-125] it was 100%; in that of `CCNc1cc(C(F)(F)F)ccc1OC1CCN(c2ccc(C(F)(F)F)cn2)CC1` [1-172], 100%.
On to `FC(F)(F)c1ccc(N2C3CCC2CC(Oc2ccc(C(F)(F)F)cc2ON=C2CCCC2)C3)nc1` (centres unmarked) [2-227], for which the “rate of killed adults” value was 100%.

The values above are taken from patent US8101768B2, “Cyclic amine compound and pest control agent” (Nippon Soda Co., Ltd., priority 2004, dated 2012).
